According to patent US20240269139A1, “COMPOUNDS FOR TARGETED PROTEIN DEGRADATION OF KINASES” (DANA-FARBER CANCER INSTITUTE, INC., priority 2020, published 2024):
Where two headings read alike, the source gives them in different places.

Assays:
Type in all cases: cell-based
[1] = target: protein kinases (human kinome) (Homo sapiens, UniProt P35790); settings: CHKA P35790
[2] = target: protein kinases (human kinome) (Homo sapiens, UniProt P49674); settings: CSNK1E P49674
[3] = target: protein kinases (human kinome) (Homo sapiens, UniProt P49840); settings: GSK3A P49840
Sequence of protein kinases (human kinome) (Homo sapiens, UniProt P49840) (P49840 whole entry): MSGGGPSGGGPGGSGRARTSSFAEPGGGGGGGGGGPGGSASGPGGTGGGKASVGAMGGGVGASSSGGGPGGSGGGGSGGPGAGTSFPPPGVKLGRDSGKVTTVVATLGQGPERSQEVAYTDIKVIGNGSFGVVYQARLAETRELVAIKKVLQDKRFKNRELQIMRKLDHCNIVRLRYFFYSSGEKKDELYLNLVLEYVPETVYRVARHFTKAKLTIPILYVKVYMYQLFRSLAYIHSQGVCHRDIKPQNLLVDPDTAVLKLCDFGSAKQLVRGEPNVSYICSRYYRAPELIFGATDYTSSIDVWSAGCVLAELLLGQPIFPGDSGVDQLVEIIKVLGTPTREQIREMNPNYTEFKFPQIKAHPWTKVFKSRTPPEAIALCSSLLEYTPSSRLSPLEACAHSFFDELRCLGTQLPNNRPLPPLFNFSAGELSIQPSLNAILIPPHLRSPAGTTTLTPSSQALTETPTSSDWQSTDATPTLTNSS

[4] = target: T1, protein kinases (human kinome) (Homo sapiens, UniProt O95835); settings: LATS1 O95835
T1 sequence (O95835 1-1130): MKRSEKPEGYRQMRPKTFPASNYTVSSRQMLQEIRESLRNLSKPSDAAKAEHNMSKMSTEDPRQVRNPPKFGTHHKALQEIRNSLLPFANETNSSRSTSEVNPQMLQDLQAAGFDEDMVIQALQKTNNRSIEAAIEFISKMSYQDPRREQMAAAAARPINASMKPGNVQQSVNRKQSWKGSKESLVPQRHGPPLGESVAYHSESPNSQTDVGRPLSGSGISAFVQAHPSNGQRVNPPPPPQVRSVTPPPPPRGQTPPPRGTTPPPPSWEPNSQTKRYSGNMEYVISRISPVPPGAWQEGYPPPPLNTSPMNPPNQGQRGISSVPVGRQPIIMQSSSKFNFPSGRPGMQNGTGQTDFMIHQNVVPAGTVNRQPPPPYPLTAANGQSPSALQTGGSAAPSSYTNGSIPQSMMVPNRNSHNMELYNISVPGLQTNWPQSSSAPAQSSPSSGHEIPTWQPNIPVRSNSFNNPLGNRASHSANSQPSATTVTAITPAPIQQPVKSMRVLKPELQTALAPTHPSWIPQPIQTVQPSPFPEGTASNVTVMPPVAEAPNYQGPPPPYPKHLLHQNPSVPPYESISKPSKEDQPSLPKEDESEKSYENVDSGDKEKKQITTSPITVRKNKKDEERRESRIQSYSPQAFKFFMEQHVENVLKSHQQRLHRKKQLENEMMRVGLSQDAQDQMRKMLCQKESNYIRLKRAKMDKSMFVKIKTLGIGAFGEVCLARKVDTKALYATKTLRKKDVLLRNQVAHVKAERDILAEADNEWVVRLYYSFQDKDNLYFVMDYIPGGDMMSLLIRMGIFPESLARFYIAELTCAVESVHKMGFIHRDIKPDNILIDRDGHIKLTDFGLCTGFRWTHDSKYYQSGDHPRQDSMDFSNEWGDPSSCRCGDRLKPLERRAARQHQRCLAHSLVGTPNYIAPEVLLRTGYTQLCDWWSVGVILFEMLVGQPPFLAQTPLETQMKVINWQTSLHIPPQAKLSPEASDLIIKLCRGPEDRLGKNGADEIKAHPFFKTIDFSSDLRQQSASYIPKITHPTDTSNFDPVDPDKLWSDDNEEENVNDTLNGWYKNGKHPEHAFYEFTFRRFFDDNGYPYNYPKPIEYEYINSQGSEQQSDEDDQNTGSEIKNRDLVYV

[5] = target: protein kinases (human kinome) (Homo sapiens, UniProt P21127)
Sequence of protein kinases (human kinome) (Homo sapiens, UniProt P21127) (P21127 whole entry): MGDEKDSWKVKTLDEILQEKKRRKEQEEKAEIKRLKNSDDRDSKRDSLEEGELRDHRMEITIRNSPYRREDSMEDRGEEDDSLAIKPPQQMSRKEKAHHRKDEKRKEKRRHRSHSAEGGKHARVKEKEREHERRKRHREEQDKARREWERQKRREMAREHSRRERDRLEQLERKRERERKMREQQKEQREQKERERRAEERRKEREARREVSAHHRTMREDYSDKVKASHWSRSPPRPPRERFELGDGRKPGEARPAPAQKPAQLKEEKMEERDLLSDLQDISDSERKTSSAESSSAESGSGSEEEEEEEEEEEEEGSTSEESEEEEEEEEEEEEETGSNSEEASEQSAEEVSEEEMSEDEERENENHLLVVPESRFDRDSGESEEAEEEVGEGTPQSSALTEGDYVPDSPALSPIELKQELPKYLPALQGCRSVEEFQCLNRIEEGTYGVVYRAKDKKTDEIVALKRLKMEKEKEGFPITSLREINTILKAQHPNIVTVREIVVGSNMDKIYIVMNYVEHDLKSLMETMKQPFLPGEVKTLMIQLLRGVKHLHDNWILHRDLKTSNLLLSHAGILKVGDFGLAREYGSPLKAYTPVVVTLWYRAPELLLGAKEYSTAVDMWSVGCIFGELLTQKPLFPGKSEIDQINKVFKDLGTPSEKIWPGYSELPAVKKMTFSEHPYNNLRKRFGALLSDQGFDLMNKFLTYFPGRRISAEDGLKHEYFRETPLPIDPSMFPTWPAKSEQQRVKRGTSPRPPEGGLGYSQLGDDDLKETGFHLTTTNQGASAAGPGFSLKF

[6] = target: protein kinases (human kinome) (Homo sapiens, UniProt Q9Y4K4); settings: MAP4K5 (Q9Y4K4)
Sequence of protein kinases (human kinome) (Homo sapiens, UniProt Q9Y4K4) (Q9Y4K4 whole entry): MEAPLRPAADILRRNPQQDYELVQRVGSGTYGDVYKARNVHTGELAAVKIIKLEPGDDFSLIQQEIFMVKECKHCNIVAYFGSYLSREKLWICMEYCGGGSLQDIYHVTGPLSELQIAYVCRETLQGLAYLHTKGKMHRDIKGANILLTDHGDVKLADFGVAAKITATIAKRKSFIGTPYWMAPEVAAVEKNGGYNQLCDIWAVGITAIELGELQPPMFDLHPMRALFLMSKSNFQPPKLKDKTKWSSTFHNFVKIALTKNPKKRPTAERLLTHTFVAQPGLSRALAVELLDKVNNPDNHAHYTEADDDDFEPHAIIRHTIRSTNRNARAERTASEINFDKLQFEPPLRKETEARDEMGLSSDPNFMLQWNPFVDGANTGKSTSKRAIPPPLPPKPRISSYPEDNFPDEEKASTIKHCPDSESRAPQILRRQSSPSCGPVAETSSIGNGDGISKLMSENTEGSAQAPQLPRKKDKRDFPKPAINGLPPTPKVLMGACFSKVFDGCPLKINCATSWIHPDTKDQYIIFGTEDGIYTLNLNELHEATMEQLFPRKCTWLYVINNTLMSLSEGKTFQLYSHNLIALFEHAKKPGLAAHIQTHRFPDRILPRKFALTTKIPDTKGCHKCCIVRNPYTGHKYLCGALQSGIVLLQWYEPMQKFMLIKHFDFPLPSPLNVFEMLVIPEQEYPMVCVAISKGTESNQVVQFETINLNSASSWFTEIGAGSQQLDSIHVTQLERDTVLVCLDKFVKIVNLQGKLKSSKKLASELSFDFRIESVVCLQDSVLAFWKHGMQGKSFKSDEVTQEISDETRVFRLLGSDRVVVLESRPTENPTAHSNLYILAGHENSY

[7] = CDK11B P21127-1, experiment wp168
[8] = experiment wp107, direction down
[9] = CDK11B P21127-1, experiment wp045
[10] = CDK11B P21127-1, experiment wp105
[11] = CDK11B P21127-1, experiment wp117
[12] = CDK11B P21127-1, experiment wp160, 4 hr
[13] = CDK11B P21127-1, experiment wp160, 8 hr
[14] = CDK11B P21127-1, experiment wp172

Sequence of protein kinases (human kinome) (Homo sapiens, UniProt P49674) (P49674 whole entry): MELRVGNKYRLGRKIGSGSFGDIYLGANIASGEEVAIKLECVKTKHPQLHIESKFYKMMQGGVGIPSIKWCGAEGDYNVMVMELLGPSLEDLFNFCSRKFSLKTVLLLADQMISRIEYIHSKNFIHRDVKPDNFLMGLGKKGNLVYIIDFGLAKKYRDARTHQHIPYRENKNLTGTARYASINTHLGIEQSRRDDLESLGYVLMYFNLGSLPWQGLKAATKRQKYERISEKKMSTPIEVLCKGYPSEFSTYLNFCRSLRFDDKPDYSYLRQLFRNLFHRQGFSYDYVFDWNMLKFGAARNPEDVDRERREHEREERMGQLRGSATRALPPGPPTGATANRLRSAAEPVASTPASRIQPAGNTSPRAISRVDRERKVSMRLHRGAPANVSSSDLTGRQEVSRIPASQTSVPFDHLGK
Sequence of protein kinases (human kinome) (Homo sapiens, UniProt P35790) (P35790 whole entry): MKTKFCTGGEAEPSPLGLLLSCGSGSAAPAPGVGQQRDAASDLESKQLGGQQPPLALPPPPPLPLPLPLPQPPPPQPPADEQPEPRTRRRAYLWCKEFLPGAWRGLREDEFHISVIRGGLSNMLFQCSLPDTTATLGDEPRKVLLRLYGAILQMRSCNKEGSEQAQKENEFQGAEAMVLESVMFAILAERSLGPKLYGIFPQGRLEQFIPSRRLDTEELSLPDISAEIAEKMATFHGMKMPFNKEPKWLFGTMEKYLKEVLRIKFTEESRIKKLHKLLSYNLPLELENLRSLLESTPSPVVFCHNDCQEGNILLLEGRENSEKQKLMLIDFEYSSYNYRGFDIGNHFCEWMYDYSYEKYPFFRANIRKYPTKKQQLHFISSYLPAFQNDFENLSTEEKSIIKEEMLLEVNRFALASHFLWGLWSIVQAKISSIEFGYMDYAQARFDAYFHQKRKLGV

Cc1ncsc1-c1ccc([C@H](C)NC(=O)[C@@H]2C[C@@H](O)CN2C(=O)[C@@H](NC(=O)CCOCCOCCN2CCN(c3ccc(Nc4ncc(Cl)c(Nc5ccccc5S(=O)(=O)C(C)C)n4)cc3)CC2)C(C)(C)C)cc1 [FMF.06.098.1]
logFC ([1]; experiment wp108): −0.3716
logFC ([1]; experiment wp131): −0.4457

Nc1ncc(-c2ccc(S(=O)(=O)N(CCCNC(=O)CCOCCOCCOCCOCCOCCNc3cccc4c3C(=O)N(C3CCC(=O)NC3=O)C4=O)C3CC3)cc2)cc1-c1ccc2c(c1)CCNC2=O (centres unmarked) [WH.10417.099]
logFC ([2]; experiment wp056): −1.591
logFC CSNK1E ([2]; experiment wp056): −1.591
logFC ([2]; experiment wp103): −1.306
logFC CSNK1E ([2]; experiment wp103): −1.306
logFC ([2]; experiment wp105): −0.8305
logFC CSNK1E ([2]; experiment wp105): −0.8305
logFC ([2]; experiment wp107): −2.192
logFC CSNK1E ([2]; experiment wp107): −2.192
logFC ([2]; experiment wp172): −1.164
logFC CSNK1E ([2]; experiment wp172): −1.164
logFC ([3]; experiment wp056): −0.5169
logFC GSK3A ([3]; experiment wp056): −0.5169
logFC ([3]; experiment wp103): −0.443
logFC GSK3A ([3]; experiment wp103): −0.443
logFC ([3]; experiment wp105): −0.4499
logFC GSK3A ([3]; experiment wp105): −0.4499
logFC ([3]; experiment wp107): −0.4697
logFC GSK3A ([3]; experiment wp107): −0.4697

O=C1CCC(N2C(=O)c3cccc(NCCCCCCCCN4CCC(NC(=O)c5[nH]ncc5NC(=O)c5c(Cl)cccc5Cl)CC4)c3C2=O)C(=O)N1 (centres unmarked) [MFH.5.126.1]
logFC ([3]; experiment wp076): −0.7531
logFC GSK3A ([3]; experiment wp076): −0.7531
logFC ([1]; experiment wp076): −0.4653

Nc1ncnc2c1c(-c1ccc(Oc3ccccc3)cc1)nn2[C@H]1CC[C@H](N2CCN(CCOCCNC(=O)CNc3cccc4c3C(=O)N(C3CCC(=O)NC3=O)C4=O)CC2)CC1 (some centres unmarked) [SB1.G.181]
logFC ([2]; experiment wp071): −1.189
logFC CSNK1E ([2]; experiment wp071): −1.189
logFC ([4]; experiment wp071): −1.273
logFC LATS1 ([4]; experiment wp071): −1.273

Cc1cc(Nc2ncc(Br)c(Nc3cccc(F)c3C(N)=O)n2)ccc1S(=O)(=O)NCCOCCOCCOCCOCCNc1cccc2c1C(=O)N(C1CCC(=O)NC1=O)C2=O (centres unmarked) [TMX.02.174]
logFC ([3]; experiment wp146): −0.7133
logFC GSK3A ([3]; experiment wp146): −0.7133

Cc1ccc(NC(=O)c2cccc(C(F)(F)F)c2)cc1N1Cc2cnc(Nc3ccc(N4CCN(CCCOc5cccc6c5C(=O)N(C5CCC(=O)NC5=O)C6=O)CC4)nc3)nc2N(C)C1=O (centres unmarked) [DB0662]
logFC ([1]; experiment wp168): −0.3222
logFC [5, 7]: −0.5946
logFC CDK11B [5, 7]: −0.5946

CC(C)S(=O)(=O)c1ccccc1Nc1nc(Nc2ccc(N3CCN(CCOCCOCCNC(=O)CNc4cccc5c4C(=O)N(C4CCC(=O)NC4=O)C5=O)CC3)cc2)ncc1Cl (centres unmarked) [TL12.186]
logFC ([2]; experiment wp137): −0.4411
logFC CSNK1E ([2]; experiment wp137): −0.4411
logFC ([1]; experiment wp131): −0.3954

Cc1ccc(C(=O)Nc2ccc(CN3CCN(CCCOCCOCCOCCNC(=O)COc4cccc5c4C(=O)N(C4CCC(=O)NC4=O)C5=O)CC3)c(C(F)(F)F)c2)cc1C#Cc1cnc2cccnn12 (centres unmarked) [SB1.G.187]
logFC ([6]; experiment wp105): −0.3488
logFC ([6]; experiment wp105, direction down): −0.3488
logFC ([6]; experiment wp107): −0.4411
logFC [6, 8]: −0.4411

NC(=O)c1c(F)cccc1Nc1nc(Nc2ccc(S(=O)(=O)NCCOCCOCCOCCOCCNc3cccc4c3C(=O)N(C3CCC(=O)NC3=O)C4=O)cc2)ncc1Br (centres unmarked) [TMX.02.138]
logFC ([3]; experiment wp146): −0.8225
logFC GSK3A ([3]; experiment wp146): −0.8225

Cc1ccc(NC(=O)c2cccc(C(F)(F)F)c2)cc1N1Cc2cnc(Nc3ccc(N4CCN(Cc5cn(CCCCCOc6cccc7c6C(=O)N(C6CCC(=O)NC6=O)C7=O)nn5)CC4)nc3)nc2N(C)C1=O (centres unmarked) [DB0646, N-(3-(7-((6-(4-((1-(5-((2-(2,6-Dioxopiperidin-3-yl)-1,3-dioxoisoindolin-4-yl)oxy)pentyl)-1H-1,2,3-triazol-4-yl)methyl)piperazin-1-v)pyridin-3-yl)amino)-1-methyl-2-oxo-1,4-dihydropyrimido[4,5-d]pyrimidin-3(2H)-yl)-4-methylphenyl)-3-(trifluoromethyl)benzamide]
logFC ([4]; experiment wp160, 8 hr): −0.3382
logFC LATS1 ([4]; experiment wp160, 8 hr): −0.3382
logFC ([1]; experiment wp152): −0.3979
logFC ([1]; experiment wp160, 8 hr): −0.4303
logFC [5, 9]: −0.4555
logFC CDK11B [5, 9]: −0.4555
logFC [5, 10]: −0.3542
logFC CDK11B [5, 10]: −0.3542
logFC [5, 11]: −0.4695
logFC CDK11B [5, 11]: −0.4695
logFC [5, 12]: −0.5122
logFC CDK11B [5, 12]: −0.5122
logFC [5, 13]: −0.644
logFC CDK11B [5, 13]: −0.644
logFC [5, 14]: −0.4624
logFC CDK11B [5, 14]: −0.4624
logFC ([5]; CDK11B P21127, experiment wp152): −0.5948
logFC of CDK11B (P21127) ([5]; experiment wp152): −0.5948
logFC ([6]; experiment wp045): −0.4109
logFC ([6]; experiment wp045, direction down): −0.4109
logFC ([6]; experiment wp107): −0.3345
logFC [6, 8]: −0.3345
logFC ([6]; experiment wp160, 8 hr): −0.5009
logFC ([6]; experiment wp160, 8 hr, direction down): −0.5009

Cc1ncsc1-c1ccc([C@H](C)NC(=O)[C@@H]2C[C@@H](O)CN2C(=O)[C@@H](NC(=O)CCCCCN2CCN(c3ccc(Nc4ncc5scc(-c6cccc(NS(C)(=O)=O)c6)c5n4)cc3)CC2)C(C)(C)C)cc1 [RSS0680, (2S,4R)-1-((S)-3,3-Dimethyl-2-(6-(4-(4-((7-(3-(methylsulfonamido)phenyl)thieno[3,2-d]pyrimidin-2-yl)amino)phenyl)piperazin-1-yl)hexanamido)butanoyl)-4-hydroxy-N—((S)-1-(4-(4-methylthiazol-5yl)phenyl)ethyl)pyrrolidine-2-carboxamide]
logFC ([4]; experiment wp117): −0.4143
logFC LATS1 ([4]; experiment wp117): −0.4143

CC(C)S(=O)(=O)c1ccccc1Nc1nc(Nc2ccc(N3CCN(CCOCCNC(=O)CNc4cccc5c4C(=O)N(C4CCC(=O)NC4=O)C5=O)CC3)cc2)ncc1Cl (centres unmarked) [SK.3.91]
logFC ([4]; experiment wp105): −0.3335
logFC LATS1 ([4]; experiment wp105): −0.3335
logFC ([4]; experiment wp107): −0.4609
logFC LATS1 ([4]; experiment wp107): −0.4609
logFC ([4]; experiment wp160, 4 hr): −0.3463
logFC LATS1 ([4]; experiment wp160, 4 hr): −0.3463

Cc1ccc(NC(=O)c2cccc(C(F)(F)F)c2)cc1N1Cc2cnc(Nc3ccc(N4CCN(CCCCC(=O)N[C@H](C(=O)N5C[C@H](O)C[C@H]5C(=O)N[C@@H](C)c5ccc(-c6scnc6C)cc5)C(C)(C)C)CC4)nc3)nc2N(C)C1=O [DB1113]
logFC [5, 7]: −0.8736
logFC CDK11B [5, 7]: −0.8736
logFC ([6]; experiment wp168): −1.754
logFC ([6]; experiment wp168, direction down): −1.754
